From patent US20260070906A1, “IMIDAZO[4,5-C]PYRIDINE COMPOUNDS FOR THE TREATMENT OF CANCER” (Hoffmann-La Roche Inc., priority 2023, published 2026)

Legend:
human TLR7 = biological target: T1, human TLR7 (Homo sapiens, UniProt Q9NYK1); assay: HEK293-Blue-hTLR7 cells assay (NF-κB SEAP reporter); assay type: cell-based; settings: 20 hrs incubation, agonism
T1 construct: host or cells: HEK293-Blue-hTLR7 (HEK293)
T1 sequence (Q9NYK1 27-1049): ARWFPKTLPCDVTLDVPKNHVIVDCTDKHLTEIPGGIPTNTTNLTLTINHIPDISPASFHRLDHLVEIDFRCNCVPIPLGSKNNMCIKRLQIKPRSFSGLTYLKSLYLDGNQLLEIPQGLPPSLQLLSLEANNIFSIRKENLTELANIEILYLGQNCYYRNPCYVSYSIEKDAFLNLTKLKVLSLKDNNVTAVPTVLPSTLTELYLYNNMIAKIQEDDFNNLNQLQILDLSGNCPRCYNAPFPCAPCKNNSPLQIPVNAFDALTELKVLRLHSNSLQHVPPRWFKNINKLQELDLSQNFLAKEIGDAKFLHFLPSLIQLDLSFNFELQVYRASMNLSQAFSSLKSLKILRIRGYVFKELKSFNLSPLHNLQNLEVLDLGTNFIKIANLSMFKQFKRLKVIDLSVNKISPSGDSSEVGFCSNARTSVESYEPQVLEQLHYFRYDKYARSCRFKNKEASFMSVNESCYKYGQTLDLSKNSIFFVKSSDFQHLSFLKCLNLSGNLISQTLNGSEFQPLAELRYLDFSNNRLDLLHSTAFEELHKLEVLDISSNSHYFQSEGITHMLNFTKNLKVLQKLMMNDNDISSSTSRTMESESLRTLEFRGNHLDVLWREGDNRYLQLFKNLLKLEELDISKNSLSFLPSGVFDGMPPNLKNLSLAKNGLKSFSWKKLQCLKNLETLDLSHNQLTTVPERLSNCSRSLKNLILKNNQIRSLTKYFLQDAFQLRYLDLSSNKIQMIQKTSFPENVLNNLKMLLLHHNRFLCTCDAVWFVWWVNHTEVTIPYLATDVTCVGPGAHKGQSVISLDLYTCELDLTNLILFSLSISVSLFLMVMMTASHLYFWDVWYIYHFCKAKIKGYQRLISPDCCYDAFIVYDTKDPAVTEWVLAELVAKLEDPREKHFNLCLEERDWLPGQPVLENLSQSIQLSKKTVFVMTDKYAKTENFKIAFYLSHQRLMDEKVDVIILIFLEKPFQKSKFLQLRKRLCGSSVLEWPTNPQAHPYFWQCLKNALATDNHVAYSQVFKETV
Description: A stable HEK293-Blue-hTLR7 cell line was purchased from InvivoGen (Cat. #: hkb-htlr7, San Diego, California, USA). These cells were designed for studying the stimulation of human TLR7 by monitoring the activation of NF-κB. A SEAP (secreted embryonic alkaline phosphatase) reporter gene was placed under the control of the IFN-β minimal promoter fused to five NF-κB and AP-1-binding sites. The SEAP was induced by activating NF-κB and AP-1 via stimulating HEK-Blue hTLR7 cells with TLR7 ligands. Therefore the reporter expression was regulated by the NF-κB promoter upon stimulation of human TLR7 for 20 hrs. The cell culture supernatant SEAP reporter activity was determined using QUANTI-Blue™ kit (Cat. #: rep-qbl, Invivogen, San Diego, Ca, USA) at a wavelength of 650 nm, a detection medium that turns purple or blue in the presence of alkaline phosphatase.
HEK293-Blue-hTLR7 cells were incubated at a density of 250,000˜450,000 cells/mL in a volume of 180 μL in a 96-well plate in Dulbecco's Modified Eagle's medium (DMEM) containing 4.5 g/L glucose, 100 U/mL penicillin, 100 μg/mL streptomycin, 100 μg/mL Normocin, 1% (V/V) GlutaMAX™, 10% (V/V) heat-inactivated fetal bovine serum for 24 hrs. Then the HEK293-Blue-hTLR-7 cells were incubated with addition of 20 μL test compound in a serial dilution in the presence of final DMSO at 1% and perform incubation under 37° C. in a CO2 incubator for 20 hrs. Then 20 μL of the supernatant from each well was incubated with 180 μL Quanti-blue substrate solution at 37° C. for 1 hours and the absorbance was read at 620-655 nm using a spectrophotometer. The signalling pathway that TLR7 activation leads to downstream NF-κB activation has been widely accepted, and therefore similar reporter assay was also widely used for evaluating TLR7 agonist (Tsuneyasu Kaisho and Takashi Tanaka, Trends in Immunology, Volume 29, Issue 7, July 2008, […]; Hiroaki Hemmi et al, Nature Immunology 3, 196-200 (2002)).

human TLR8 = biological target: T2, human TLR8 (Homo sapiens, UniProt Q9NR97); assay: HEK293-Blue-hTLR8 cells assay (NF-κB SEAP reporter); assay type: cell-based; settings: 20 hours incubation, agonism
T2 construct: host or cells: HEK293-Blue-hTLR8 (HEK293)
T2 sequence (Q9NR97 27-1041): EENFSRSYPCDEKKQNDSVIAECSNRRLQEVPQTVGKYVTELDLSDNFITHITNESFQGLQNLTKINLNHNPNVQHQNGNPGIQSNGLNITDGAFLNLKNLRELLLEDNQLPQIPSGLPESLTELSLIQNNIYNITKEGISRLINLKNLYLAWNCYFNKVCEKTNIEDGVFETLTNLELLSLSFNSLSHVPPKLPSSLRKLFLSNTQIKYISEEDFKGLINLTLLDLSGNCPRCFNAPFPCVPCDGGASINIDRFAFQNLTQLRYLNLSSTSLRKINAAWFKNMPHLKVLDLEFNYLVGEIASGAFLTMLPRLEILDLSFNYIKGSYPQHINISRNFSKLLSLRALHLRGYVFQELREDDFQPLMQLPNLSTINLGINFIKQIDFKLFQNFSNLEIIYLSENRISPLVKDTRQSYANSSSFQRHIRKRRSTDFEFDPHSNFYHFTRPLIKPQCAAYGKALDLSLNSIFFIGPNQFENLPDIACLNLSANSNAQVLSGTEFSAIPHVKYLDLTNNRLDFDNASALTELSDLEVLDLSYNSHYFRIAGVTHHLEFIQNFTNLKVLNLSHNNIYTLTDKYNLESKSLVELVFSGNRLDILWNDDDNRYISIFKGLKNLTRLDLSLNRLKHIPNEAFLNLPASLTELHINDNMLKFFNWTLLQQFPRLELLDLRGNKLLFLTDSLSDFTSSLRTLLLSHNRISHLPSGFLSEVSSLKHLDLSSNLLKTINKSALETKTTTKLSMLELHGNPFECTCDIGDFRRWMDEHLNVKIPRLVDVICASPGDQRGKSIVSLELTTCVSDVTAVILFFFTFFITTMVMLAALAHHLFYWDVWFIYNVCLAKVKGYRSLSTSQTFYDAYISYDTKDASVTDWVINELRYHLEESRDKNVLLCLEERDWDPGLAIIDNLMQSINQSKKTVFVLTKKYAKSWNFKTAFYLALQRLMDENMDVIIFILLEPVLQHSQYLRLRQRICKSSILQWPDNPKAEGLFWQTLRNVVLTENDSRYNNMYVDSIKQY
Description: A stable HEK293-Blue-hTLR8 cell line was purchased from InvivoGen (Cat. #: hkb-htlr8, San Diego, California, USA). These cells were designed for studying the stimulation of human TLR8 by monitoring the activation of NF-κB. A SEAP (secreted embryonic alkaline phosphatase) reporter gene was placed under the control of the IFN-β minimal promoter fused to five NF-κB and AP-1-binding sites. The SEAP was induced by activating NF-κB and AP-1 via stimulating HEK-Blue hTLR8 cells with TLR8 ligands. Therefore the reporter expression was regulated by the NF-κB promoter upon stimulation of human TLR8. The cell culture supernatant SEAP reporter activity was determined using QUANTI-Blue™ kit (Cat. #: rep-qbl, Invivogen, San Diego, Ca, USA) at a wavelength of 650 nm, a detection medium that turns purple to blue in the presence of alkaline phosphatase.
HEK293-Blue-hTLR8 cells were incubated at a density of 250,000-450,000 cells/mL in a volume of 180 μL in a 96-well plate in Dulbecco's Modified Eagle's medium (DMEM) containing 4.5 g/L glucose, 100 U/mL penicillin, 100 μg/mL streptomycin, 100 μg/mL Normocin, 1% (V/V) GlutaMAX™, 10% (v/v) heat-inactivated fetal bovine serum for 24 hours. Then the HEK293-Blue-hTLR8 cells were incubated with addition of 20 μL test compound in a serial dilution in the presence of final DMSO at 1% and perform incubation under 37° C. in a CO2 incubator for 20 hours. Then 20 μL of the supernatant from each well was incubated with 180 μL Quanti-blue substrate solution at 37° C. for 1 hours and the absorbance was read at 620-655 nm using a spectrophotometer. The signalling pathway that TLR8 activation leads to downstream NF-κB activation has been widely accepted, and therefore similar reporter assay was also widely used for evaluating TLR8 agonist.

Structure (SMILES) | EC50 (human TLR7) | EC50 (human TLR8) | HEK293-hTLR7 EC50 (human TLR7) | HEK293-hTLR8 EC50 (human TLR8)
CCOCc1nc2c(N)nc(C)c(Sc3ccc(CN4CCN(C)CC4)c(N)c3)c2[nH]1 [Example 28, 7-[3-amino-4-[(4-methylpiperazin-1-yl)methyl]phenyl]sulfanyl-2-(ethoxymethyl)-6-methyl-1H-imidazo[4,5-c]pyridin-4-amine] | 10 nM | 44 nM | – | –
CCOCc1nc2c(N)nc(C)c(Sc3c(N)cc(CN4CCN(C)CC4)cc3OC)c2[nH]1 [Example 29, 7-[2-amino-6-methoxy-4-[(4-methylpiperazin-1-yl)methyl]phenyl]sulfanyl-2-(ethoxymethyl)-6-methyl-1H-imidazo[4,5-c]pyridin-4-amine] | 6 nM | 44 nM | – | –
CCOCc1nc2c(N)nc(C)c(Sc3ccc(NCCN(C)C)nc3)c2[nH]1 [Example 30, N-[5-[[4-amino-2-(ethoxymethyl)-6-methyl-1H-imidazo[4,5-c]pyridin-7-yl]sulfanyl]-2-pyridyl]-N′,N′-dimethyl-ethane-1,2-diamine] | 13 nM | 11 nM | – | –
CCOCc1nc2c(N)nc(C)c(Sc3ccc(CCN(C)C)cc3)c2[nH]1 [Example 31, 7-[4-[2-(dimethylamino)ethyl]phenyl]sulfanyl-2-(ethoxymethyl)-6-methyl-1H-imidazo[4,5-c]pyridin-4-amine] | 18 nM | 5 nM | – | –
CCOCc1nc2c(N)nc(C)c(Sc3cc4c(cc3O)CN(C)CC4)c2[nH]1 [Example 32, 6-[[4-amino-2-(ethoxymethyl)-6-methyl-1H-imidazo[4,5-c]pyridin-7-yl]sulfanyl]-2-methyl-3,4-dihydro-1H-isoquinolin-7-ol] | 21 nM | 54 nM | – | –
CCCCc1nc2c(N)nnc(N(C)Cc3ccc(CN(C)C)cc3)c2n1C [SAN-43, reference compound] | 310 nM | 37 nM | did not show comparable TLR7 and TLR8 activities | did not show comparable TLR7 and TLR8 activities
